Test system: 422866-222-R5-J1-PDC spheroids with HUVEC/MSC, viability
Assay: Anticancer human tumor 422866-222-R5-J1-PDC patient-derived pancreatic adenocarcinoma cell line growth inhibition [GQUAD]
Settings: for IC50: curve of first compound; for viability, T/C: stronger effect = lower value
In short: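 Tumor cells were grown as complex spheroids with HUVEC endothelial cells and mesenchymal stem cells as stroma. G-quadruplex stabilizers were combined with targeted agents over half-log dilutions from near the clinical Cmax, or from 10 microM.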

[1] = second compound 0.0316 µM, first compound 0.0316 µM
[2] = second compound 0.0316 µM, first compound 0.1 µM
[3] = second compound 0.0316 µM, first compound 0.316 µM
[4] = second compound 0.0316 µM, first compound 1 µM
[5] = second compound 0.0316 µM, first compound 3.16 µM
[6] = second compound 0.0316 µM, first compound 10 µM
[7] = second compound 0.1 µM, first compound 0.0316 µM
[8] = second compound 0.1 µM, first compound 0.1 µM
[9] = second compound 0.1 µM, first compound 0.316 µM
[10] = second compound 0.1 µM, first compound 1 µM
[11] = second compound 0.1 µM, first compound 3.16 µM
[12] = second compound 0.1 µM, first compound 10 µM
[13] = second compound 0.316 µM, first compound 0.0316 µM
[14] = second compound 0.316 µM, first compound 0.1 µM
[15] = second compound 0.316 µM, first compound 0.316 µM
[16] = second compound 0.316 µM, first compound 1 µM
[17] = second compound 0.316 µM, first compound 3.16 µM
[18] = second compound 0.316 µM, first compound 10 µM
[19] = second compound 1 µM, first compound 0.0316 µM
[20] = second compound 1 µM, first compound 0.1 µM
[21] = second compound 1 µM, first compound 0.316 µM
[22] = second compound 1 µM, first compound 1 µM
[23] = second compound 1 µM, first compound 3.16 µM
[24] = second compound 1 µM, first compound 10 µM
[25] = second compound 3.16 µM, first compound 0.0316 µM
[26] = second compound 3.16 µM, first compound 0.1 µM
[27] = second compound 3.16 µM, first compound 0.316 µM
[28] = second compound 3.16 µM, first compound 1 µM
[29] = second compound 3.16 µM, first compound 3.16 µM
[30] = second compound 3.16 µM, first compound 10 µM
[31] = second compound 10 µM, first compound 0.0316 µM
[32] = second compound 10 µM, first compound 0.1 µM
[33] = second compound 10 µM, first compound 0.316 µM
[34] = second compound 10 µM, first compound 1 µM
[35] = second compound 10 µM, first compound 3.16 µM
[36] = second compound 10 µM, first compound 10 µM
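Note: spheroids exposed to compounds for seven days before reading.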
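Throughout, for viability, T/C: percent viability relative to DMSO vehicle control taken as 100%.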

Question: For `COc1cccc2c1C(=O)c1c(O)c3c(c(O)c1C2=O)CC(O)(C(=O)CO)CC3OC1CC(N)C(O)C(C)O1` (stereo unspecified) + Cc1cnc(CNC(=O)c2c(=O)c3ccc(N4CCCN(C)CC4)nc3n3c2sc2ccccc23)cn1, which IC50 (second compound 0.0316 µM) is on record?
Answer: The IC50 was 983 nM.

Question: And the IC50 (second compound 0.1 µM)?
Answer: The IC50 was 961 nM.

Question: And the IC50 (second compound 0.316 µM)?
Answer: The IC50 was 1180 nM.

Question: And the IC50 (second compound 1 µM)?
Answer: The IC50 was 1290 nM.

Question: What about the IC50 (second compound 3.16 µM) of the same compound?
Answer: The IC50 was 1400 nM.

Question: And the IC50 (second compound 10 µM)?
Answer: The IC50 was 1110 nM.

Question: And the viability, T/C [1]?
Answer: Its viability, T/C is 100%.

Question: What about the viability, T/C [2] of the same compound?
Answer: The viability, T/C was 65.7%.

Question: What about the viability, T/C [3] of the same compound?
Answer: Its viability, T/C is 78.6%.

Question: And the viability, T/C [4]?
Answer: The viability, T/C was 46.5%.

Question: And the viability, T/C [5]?
Answer: The viability, T/C was 33.9%.

Question: What about the viability, T/C [6] of the same compound?
Answer: The viability, T/C was 25.7%.

Question: And the viability, T/C [7]?
Answer: The viability, T/C was 89.3%.

Question: What about the viability, T/C [8] of the same compound?
Answer: The viability, T/C was 69.5%.

Question: What about the viability, T/C [9] of the same compound?
Answer: The viability, T/C was 78.9%.

Question: What about the viability, T/C [10] of the same compound?
Answer: The viability, T/C was 48.7%.

Question: What about the viability, T/C [11] of the same compound?
Answer: The viability, T/C was 34.8%.

Question: What about the viability, T/C [12] of the same compound?
Answer: Its viability, T/C is 30.1%.

Question: And the viability, T/C [13]?
Answer: Its viability, T/C is 83.3%.

Question: And the viability, T/C [14]?
Answer: Its viability, T/C is 81.8%.

Question: And the viability, T/C [15]?
Answer: The viability, T/C was 73%.

Question: And the viability, T/C [16]?
Answer: The viability, T/C was 51.5%.

Question: And the viability, T/C [17]?
Answer: Its viability, T/C is 37.3%.

Question: And the viability, T/C [18]?
Answer: The viability, T/C was 30%.

Question: And the viability, T/C [19]?
Answer: Its viability, T/C is 73.3%.

Question: And the viability, T/C [20]?
Answer: Its viability, T/C is 86.8%.

Question: What about the viability, T/C [21] of the same compound?
Answer: The viability, T/C was 80.1%.

Question: What about the viability, T/C [22] of the same compound?
Answer: Its viability, T/C is 54.8%.

Question: What about the viability, T/C [23] of the same compound?
Answer: The viability, T/C was 33.7%.

Question: And the viability, T/C [24]?
Answer: Its viability, T/C is 29.5%.

Question: And the viability, T/C [25]?
Answer: Its viability, T/C is 95.4%.

Question: And the viability, T/C [26]?
Answer: Its viability, T/C is 80.4%.

Question: What about the viability, T/C [27] of the same compound?
Answer: Its viability, T/C is 79.2%.

Question: And the viability, T/C [28]?
Answer: Its viability, T/C is 54.7%.

Question: What about the viability, T/C [29] of the same compound?
Answer: The viability, T/C was 36.5%.

Question: What about the viability, T/C [30] of the same compound?
Answer: Its viability, T/C is 34.2%.

Question: What about the viability, T/C [31] of the same compound?
Answer: Its viability, T/C is 74.2%.

Question: And the viability, T/C [32]?
Answer: The viability, T/C was 82.6%.

Question: And the viability, T/C [33]?
Answer: Its viability, T/C is 75%.

Question: What about the viability, T/C [34] of the same compound?
Answer: The viability, T/C was 50.4%.

Question: And the viability, T/C [35]?
Answer: The viability, T/C was 35.6%.

Question: And the viability, T/C [36]?
Answer: Its viability, T/C is 26.7%.

Question: Which IC50 (second compound 0.0316 µM) does the source give for `Nc1ccn(C2OC(CO)C(O)C2(F)F)c(=O)n1` (stereo unspecified) + Cc1cnc(CNC(=O)c2c(=O)c3ccc(N4CCCN(C)CC4)nc3n3c2sc2ccccc23)cn1 here?
Answer: The IC50 was 1190 nM.

Question: And the IC50 (second compound 0.1 µM)?
Answer: The IC50 was greater than 10000 nM.

Question: And the IC50 (second compound 0.316 µM)?
Answer: Its IC50 is greater than 10000 nM.

Question: And the IC50 (second compound 1 µM)?
Answer: Its IC50 is greater than 10000 nM.

Question: What about the IC50 (second compound 3.16 µM) of the same compound?
Answer: The IC50 was greater than 10000 nM.

Question: And the IC50 (second compound 10 µM)?
Answer: The IC50 was greater than 10000 nM.

Question: And the viability, T/C [1]?
Answer: Its viability, T/C is 86.7%.

Question: What about the viability, T/C [2] of the same compound?
Answer: The viability, T/C was 67.8%.

Question: What about the viability, T/C [3] of the same compound?
Answer: Its viability, T/C is 69.1%.

Question: What about the viability, T/C [4] of the same compound?
Answer: The viability, T/C was 47.2%.

Question: What about the viability, T/C [5] of the same compound?
Answer: The viability, T/C was 41.9%.

Question: And the viability, T/C [6]?
Answer: The viability, T/C was 43%.

Question: What about the viability, T/C [7] of the same compound?
Answer: Its viability, T/C is 85.6%.

Question: What about the viability, T/C [8] of the same compound?
Answer: The viability, T/C was 87%.

Question: What about the viability, T/C [9] of the same compound?
Answer: Its viability, T/C is 70.7%.

Question: And the viability, T/C [10]?
Answer: Its viability, T/C is 48.6%.

Question: What about the viability, T/C [11] of the same compound?
Answer: Its viability, T/C is 50.8%.

Question: And the viability, T/C [12]?
Answer: Its viability, T/C is 54.8%.

Question: What about the viability, T/C [13] of the same compound?
Answer: Its viability, T/C is 96.5%.

Question: And the viability, T/C [14]?
Answer: Its viability, T/C is 81%.

Question: And the viability, T/C [15]?
Answer: Its viability, T/C is 70.3%.

Question: And the viability, T/C [16]?
Answer: The viability, T/C was 62.3%.

Question: And the viability, T/C [17]?
Answer: The viability, T/C was 54.1%.

Question: What about the viability, T/C [18] of the same compound?
Answer: The viability, T/C was 58.1%.

Question: And the viability, T/C [19]?
Answer: The viability, T/C was 78.2%.

Question: What about the viability, T/C [20] of the same compound?
Answer: The viability, T/C was 72.7%.

Question: What about the viability, T/C [21] of the same compound?
Answer: The viability, T/C was 74.3%.

Question: And the viability, T/C [22]?
Answer: The viability, T/C was 69.2%.

Question: What about the viability, T/C [23] of the same compound?
Answer: Its viability, T/C is 68.3%.

Question: What about the viability, T/C [24] of the same compound?
Answer: The viability, T/C was 63.4%.

Question: What about the viability, T/C [25] of the same compound?
Answer: Its viability, T/C is 70.5%.

Question: And the viability, T/C [26]?
Answer: The viability, T/C was 88.6%.

Question: And the viability, T/C [27]?
Answer: Its viability, T/C is 72.4%.

Question: What about the viability, T/C [28] of the same compound?
Answer: The viability, T/C was 79.8%.

Question: What about the viability, T/C [29] of the same compound?
Answer: Its viability, T/C is 71.2%.

Question: What about the viability, T/C [30] of the same compound?
Answer: Its viability, T/C is 58.4%.

Question: And the viability, T/C [31]?
Answer: The viability, T/C was 84.9%.

Question: And the viability, T/C [32]?
Answer: Its viability, T/C is 78.4%.

Question: What about the viability, T/C [33] of the same compound?
Answer: The viability, T/C was 89.5%.

Question: And the viability, T/C [34]?
Answer: Its viability, T/C is 79.2%.

Question: What about the viability, T/C [35] of the same compound?
Answer: The viability, T/C was 67.2%.

Question: And the viability, T/C [36]?
Answer: Its viability, T/C is 63.4%.

Question: What does the source list for `O=c1[nH]cc(F)c(=O)[nH]1` + Cc1cnc(CNC(=O)c2c(=O)c3ccc(N4CCCN(C)CC4)nc3n3c2sc2ccccc23)cn1?
Answer: IC50 (second compound 0.0316 µM): > 10000 nM; IC50 (second compound 0.1 µM): > 10000 nM; IC50 (second compound 0.316 µM): > 10000 nM; IC50 (second compound 1 µM): > 10000 nM; IC50 (second compound 3.16 µM): > 10000 nM; IC50 (second compound 10 µM): > 10000 nM; viability, T/C [1]: 90%; viability, T/C [2]: 93.1%; viability, T/C [3]: 88.2%; viability, T/C [4]: 88.8%; viability, T/C [5]: 78%; viability, T/C [6]: 78.7%; viability, T/C [7]: 94.5%; viability, T/C [8]: 79.6%; viability, T/C [9]: 89.4%; viability, T/C [10]: 95.5%; viability, T/C [11]: 85.8%; viability, T/C [12]: 87.5%; viability, T/C [13]: 85.6%; viability, T/C [14]: 69.4%; viability, T/C [15]: 96.1%; viability, T/C [16]: 83.3%; viability, T/C [17]: 89.7%; viability, T/C [18]: 92.2%; viability, T/C [19]: 88.6%; viability, T/C [20]: 85.8%; viability, T/C [21]: 85.2%; viability, T/C [22]: 104%; viability, T/C [23]: 105%; viability, T/C [24]: 104%; viability, T/C [25]: 83.1%; viability, T/C [26]: 85.2%; viability, T/C [27]: 93.5%; viability, T/C [28]: 83.3%; viability, T/C [29]: 99.8%; viability, T/C [30]: 82.8%; viability, T/C [31]: 81.8%; viability, T/C [32]: 78.4%; viability, T/C [33]: 85.7%; viability, T/C [34]: 80.6%; viability, T/C [35]: 87.5%; viability, T/C [36]: 76.4%

Source: PubChem BioAssay AID2060511 (Molecular Pharmacology Branch, DTP, NCI, 2025)
